In the NIST ThermoML archive (doi:10.1021/je200806n):

Test: xn = mol fraction of the nth substance listed
Details: 101.3 kPa, Liquid

CCCCCC(C)O (centres undefined) [2-heptanol] + O=C1CCCCC1
Details | mass density, 298.15 K [kg/m3] | mass density, 303.15 K [kg/m3] | mass density, 308.15 K [kg/m3] | mass density, 313.15 K [kg/m3] | viscosity, 298.15 K [mPa·s] | viscosity, 303.15 K [mPa·s] | viscosity, 308.15 K [mPa·s] | viscosity, 313.15 K [mPa·s]
x2 = 0 | 813.18 | 809.26 | 805.01 | 801.14 | 5.023 | 4.151 | 3.478 | 2.852
x2 = 0.0826 | 820.37 | 816.21 | 811.69 | 807.61 | 4.282 | 3.546 | 2.94 | 2.412
x2 = 0.1625 | 827.64 | 823.36 | 818.81 | 814.53 | 3.64 | 2.986 | 2.448 | 1.989
x2 = 0.2415 | 835.26 | 830.91 | 826.28 | 821.87 | 3.081 | 2.473 | 1.999 | 1.604
x2 = 0.3506 | 846.69 | 842.19 | 837.46 | 832.94 | 2.401 | 1.874 | 1.482 | 1.151
x2 = 0.44 | 856.83 | 852.22 | 847.44 | 842.79 | 1.954 | 1.468 | 1.141 | 0.862
x2 = 0.5603 | 871.72 | 866.99 | 862.12 | 857.35 | 1.513 | 1.107 | 0.849 | 0.627
x2 = 0.6494 | 883.79 | 878.98 | 874.11 | 869.26 | 1.308 | 0.971 | 0.773 | 0.576
x2 = 0.7394 | 896.96 | 892.15 | 887.29 | 882.32 | 1.243 | 0.976 | 0.816 | 0.647
x2 = 0.85 | 914.67 | 909.91 | 905.04 | 900.06 | 1.391 | 1.193 | 1.054 | 0.91
x2 = 0.9392 | 930.26 | 925.58 | 920.79 | 915.85 | 1.727 | 1.535 | 1.411 | 1.256

CCCCC(C)O (centres undefined) [2-hexanol] + O=C1CCCCC1
Details | mass density, 298.15 K [kg/m3] | mass density, 303.15 K [kg/m3] | mass density, 308.15 K [kg/m3] | mass density, 313.15 K [kg/m3] | viscosity, 298.15 K [mPa·s] | viscosity, 303.15 K [mPa·s] | viscosity, 308.15 K [mPa·s] | viscosity, 313.15 K [mPa·s]
x2 = 0 | 810.14 | 806.13 | 802.06 | 797.96 | 4.101 | 3.411 | 2.819 | 2.219
x2 = 0.0821 | 818.43 | 814.12 | 809.89 | 805.91 | 3.432 | 2.834 | 2.278 | 1.686
x2 = 0.1612 | 826.61 | 822.29 | 818.07 | 814.07 | 2.879 | 2.346 | 1.823 | 1.307
x2 = 0.2409 | 835.25 | 830.81 | 826.44 | 822.41 | 2.406 | 1.932 | 1.453 | 1.024
x2 = 0.3496 | 847.88 | 843.37 | 838.88 | 834.71 | 1.896 | 1.477 | 1.122 | 0.781
x2 = 0.4391 | 858.93 | 854.32 | 849.76 | 845.48 | 1.591 | 1.23 | 0.949 | 0.679
x2 = 0.56 | 874.62 | 869.92 | 865.28 | 860.83 | 1.359 | 1.08 | 0.873 | 0.655
x2 = 0.649 | 886.88 | 882.07 | 877.39 | 872.97 | 1.325 | 1.082 | 0.907 | 0.727
x2 = 0.7391 | 899.87 | 895.12 | 890.41 | 885.97 | 1.388 | 1.173 | 1.026 | 0.85
x2 = 0.8492 | 916.79 | 912.01 | 907.19 | 902.71 | 1.576 | 1.4 | 1.249 | 1.068
x2 = 0.9395 | 931.44 | 926.63 | 921.93 | 917.21 | 1.842 | 1.662 | 1.505 | 1.326

CCC(C)O (centres undefined) [butan-2-ol] + O=C1CCCCC1
x2 = 0
Details | mass density [kg/m3] | viscosity [mPa·s]
298.15 K | 803.01 | 3.104
303.15 K | 798.29 | 2.597
308.15 K | 793.57 | 2.152
313.15 K | 789.15 | 1.733

O=C1CCCCC1 [cyclohexanone] + CC(C)O
Details | mass density, 298.15 K [kg/m3] | mass density, 303.15 K [kg/m3] | mass density, 308.15 K [kg/m3] | mass density, 313.15 K [kg/m3] | viscosity, 298.15 K [mPa·s] | viscosity, 303.15 K [mPa·s] | viscosity, 308.15 K [mPa·s] | viscosity, 313.15 K [mPa·s]
x1 = 0.0812 | 797.69 | 792.97 | 788.11 | 783.28 | 1.689 | 1.489 | 1.301 | 1.142
x1 = 0.1576 | 812.54 | 807.67 | 802.73 | 797.79 | 1.436 | 1.268 | 1.098 | 0.961
x1 = 0.2398 | 827.76 | 822.83 | 817.68 | 812.71 | 1.236 | 1.081 | 0.934 | 0.817
x1 = 0.3495 | 846.99 | 841.93 | 836.59 | 831.76 | 1.067 | 0.934 | 0.809 | 0.715
x1 = 0.4363 | 861.43 | 856.27 | 851.05 | 846.26 | 1.023 | 0.899 | 0.779 | 0.689
x1 = 0.5601 | 880.96 | 875.76 | 870.51 | 865.33 | 1.076 | 0.951 | 0.845 | 0.751
x1 = 0.6502 | 894.41 | 889.21 | 884.09 | 878.95 | 1.177 | 1.056 | 0.949 | 0.854
x1 = 0.7403 | 907.32 | 902.15 | 897.23 | 892.17 | 1.331 | 1.202 | 1.087 | 0.995
x1 = 0.8481 | 922.15 | 917.06 | 912.28 | 907.09 | 1.581 | 1.437 | 1.301 | 1.211
x1 = 0.9384 | 934.01 | 929.05 | 924.41 | 919.35 | 1.845 | 1.675 | 1.537 | 1.412
x1 = 1 | 941.91 | 937.24 | 932.67 | 927.72 | 2.057 | 1.847 | 1.694 | 1.546

O=C1CCCCC1 [cyclohexanone] + CCC(C)O
Details | mass density, 298.15 K [kg/m3] | mass density, 303.15 K [kg/m3] | mass density, 308.15 K [kg/m3] | mass density, 313.15 K [kg/m3] | viscosity, 298.15 K [mPa·s] | viscosity, 303.15 K [mPa·s] | viscosity, 308.15 K [mPa·s] | viscosity, 313.15 K [mPa·s]
x1 = 0.0814 | 814.99 | 811.03 | 805.17 | 800.53 | 2.511 | 2.163 | 1.828 | 1.441
x1 = 0.1598 | 826.39 | 822.21 | 816.34 | 811.48 | 2.067 | 1.82 | 1.561 | 1.186
x1 = 0.2444 | 838.54 | 834.13 | 828.18 | 823.15 | 1.737 | 1.535 | 1.33 | 0.982
x1 = 0.3514 | 853.71 | 849.09 | 843.19 | 838.01 | 1.472 | 1.305 | 1.128 | 0.841
x1 = 0.4404 | 866.19 | 861.39 | 855.62 | 850.33 | 1.361 | 1.206 | 1.039 | 0.794
x1 = 0.5596 | 882.62 | 877.71 | 872.19 | 866.91 | 1.332 | 1.183 | 1.036 | 0.825
x1 = 0.6523 | 895.31 | 890.36 | 884.99 | 879.69 | 1.4 | 1.249 | 1.108 | 0.914
x1 = 0.738 | 906.94 | 901.93 | 896.81 | 891.52 | 1.501 | 1.354 | 1.224 | 1.051
x1 = 0.8494 | 921.86 | 916.99 | 912.09 | 907.01 | 1.704 | 1.558 | 1.41 | 1.248
x1 = 0.9361 | 933.34 | 928.57 | 924.04 | 918.99 | 1.889 | 1.716 | 1.572 | 1.43
x1 = 1 | 941.91 | 937.24 | 932.67 | 927.72 | 2.057 | 1.847 | 1.694 | 1.546

O=C1CCCCC1 [cyclohexanone] + CCCC(C)O
x1 = 1
Details | mass density [kg/m3] | viscosity [mPa·s]
298.15 K | 941.91 | 2.057
303.15 K | 937.24 | 1.847
308.15 K | 932.67 | 1.694
313.15 K | 927.72 | 1.546

O=C1CCCCC1 [cyclohexanone] + CCCCC(C)O
x1 = 1
Details | mass density [kg/m3] | viscosity [mPa·s]
298.15 K | 941.91 | 2.057
303.15 K | 937.24 | 1.847
308.15 K | 932.67 | 1.694
313.15 K | 927.72 | 1.546

O=C1CCCCC1 [cyclohexanone] + CCCCCC(C)O
x1 = 1
Details | mass density [kg/m3] | viscosity [mPa·s]
298.15 K | 941.91 | 2.057
303.15 K | 937.24 | 1.847
308.15 K | 932.67 | 1.694
313.15 K | 927.72 | 1.546
